Assay results reported in PMC9325274, “In Vitro and In Silico Investigation of Diterpenoid Alkaloids Isolated from Delphinium chitralense” (Molecules, 2022).
Like-named read-outs stand apart in the source and are kept apart here.

Tests used:
[1] = target: T1, AChE (Electric-eel EC 3.1.1.7) (Electrophorus electricus, UniProt O42275); assay: biochemical
T1 construct: purchased Sigma-Aldrich (St. Louis, MO, USA)

[2] = target: T2, BChE (horse serum EC 3.1.1.8) (Equus caballus, UniProt P81908); assay: biochemical
T2 construct: purchased Sigma-Aldrich (St. Louis, MO, USA); host or cells: horse serum

[3] = read-out: AChE ± SEM (IC50); Electric-eel AChE; SEM of five assays
[4] = read-out: BChE ± SEM (IC50), SEM of five assays

T1 sequence (O42275 24-633): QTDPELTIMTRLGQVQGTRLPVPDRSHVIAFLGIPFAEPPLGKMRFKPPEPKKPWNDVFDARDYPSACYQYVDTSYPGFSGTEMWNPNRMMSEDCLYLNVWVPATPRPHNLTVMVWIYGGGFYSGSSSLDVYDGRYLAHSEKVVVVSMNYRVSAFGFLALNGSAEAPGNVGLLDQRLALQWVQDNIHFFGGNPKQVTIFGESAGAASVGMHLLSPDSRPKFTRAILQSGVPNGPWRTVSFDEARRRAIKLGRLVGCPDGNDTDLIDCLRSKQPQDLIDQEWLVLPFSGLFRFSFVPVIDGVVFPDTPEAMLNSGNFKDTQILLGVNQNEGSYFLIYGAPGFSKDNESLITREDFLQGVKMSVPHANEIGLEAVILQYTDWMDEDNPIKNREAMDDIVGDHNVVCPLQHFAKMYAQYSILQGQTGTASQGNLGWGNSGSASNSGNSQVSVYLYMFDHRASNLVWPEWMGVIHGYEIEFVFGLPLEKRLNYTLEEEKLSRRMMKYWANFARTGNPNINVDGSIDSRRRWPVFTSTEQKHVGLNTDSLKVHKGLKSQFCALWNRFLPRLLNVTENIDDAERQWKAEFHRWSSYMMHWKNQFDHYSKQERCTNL
T2 sequence (P81908 whole entry): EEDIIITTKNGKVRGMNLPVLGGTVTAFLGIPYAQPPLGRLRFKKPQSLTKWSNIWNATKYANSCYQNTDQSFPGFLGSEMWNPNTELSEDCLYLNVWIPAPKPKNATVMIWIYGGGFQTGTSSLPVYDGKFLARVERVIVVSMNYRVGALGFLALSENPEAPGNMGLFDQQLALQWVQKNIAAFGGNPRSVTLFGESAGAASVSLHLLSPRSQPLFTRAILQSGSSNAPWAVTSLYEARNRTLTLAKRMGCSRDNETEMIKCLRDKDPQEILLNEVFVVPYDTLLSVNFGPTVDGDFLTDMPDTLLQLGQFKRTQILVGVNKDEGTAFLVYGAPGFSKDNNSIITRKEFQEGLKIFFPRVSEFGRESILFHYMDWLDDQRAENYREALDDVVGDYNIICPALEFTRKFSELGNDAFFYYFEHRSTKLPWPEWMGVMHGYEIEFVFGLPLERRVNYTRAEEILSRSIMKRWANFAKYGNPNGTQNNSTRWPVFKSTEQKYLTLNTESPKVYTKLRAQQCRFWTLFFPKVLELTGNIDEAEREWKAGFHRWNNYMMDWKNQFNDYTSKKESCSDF

Row | Structure (SMILES) | IC50 ([1]; Electric-eel AChE; SEM of five assays; read-out: AChE ± SEM (IC50)) | Type of Inhibition ([1]; stated for inhibition of AChE and BChE; listed as Chitralinine A) | IC50 ([2]; SEM of five assays, read-out: BChE ± SEM (IC50)) | IC50 [1, 3] | Type of Inhibition ([1]; stated for inhibition of AChE and BChE; listed as Chitralinine B) | IC50 [2, 4] | Type of Inhibition ([1]; stated for inhibition of AChE and BChE; listed as Chitralinine-C)
1 | C=C1CC23CC(=O)C4C5(C)CC(O)C(O)C46C(C2C(=O)C1CC36O)N(C)C5 (stereo not drawn) [Compound 1, 9β-hydroxy hetidine] | 13.9 ± 0.35 µM | Competitive | 28.2 ± 0.92 µM |  |  |  | 
2 | C=C1CC23CC(=O)C4C56C(C2C(=O)C1(O)C(O)C35O)N(C)C(O)[C@]4(C)CC(O)[C@@H]6O (stereo partly drawn) [Compound 2, 9,11,12,19β- tetrahydoxy hetidine] |  |  |  | 11.64 ± 0.08 µM | Competitive | 24.3 ± 0.33 µM | 
3 | C=C1CC23CC(=O)C4C5(C)CC(O)C(O)C46C(C2CC1(O)C(O)C36O)N(C)C5O (stereo not drawn) [Compound 3, 1α, 2, 9,11,12,19β-hexahydoxy atisinone] |  |  |  | 12.1 ± 0.82 µM |  | 26.35 ± 0.06 µM | Competitive
